Assays:
Assay in all cases: relative viability (nuclei count vs DMSO), 5 days (fraction); higher = more cells survive
[1] = compound: O=C(/C=C/c1cccnc1)NCCCCC1CCN(C(=O)c2ccccc2)CC1 [Daporinad] + O=C(c1cc(Cc2n[nH]c(=O)c3ccccc23)ccc1F)N1CCN(C(=O)C2CC2)CC1 [Olaparib] (partner 8 µM)
Procedure, shortened: (§1)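 For relative viability, nuclei counts in treated wells were divided by those in vehicle wells. Lung cancer cell lines had been pin-tool dosed in 1536-well plates the day after seeding and cultured for 5 days, then fixed and stained in one step (final 0.05% Triton X-100, 1% formaldehyde, 1 ug/ml Hoechst) and imaged at 4×. Doses were one drug alone or a fixed anchor-drug dose plus five library-drug doses (not always all listed) in √10 steps, and values are duplicate-plate medians.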

[2] = compound: COc1cc(Nc2ncc(F)c(Nc3ccc4c(n3)NC(=O)C(C)(C)O4)n2)cc(OC)c1OC [R406] + Cc1nc(Nc2ncc(C(=O)Nc3c(C)cccc3Cl)s2)cc(N2CCN(CCO)CC2)n1 [Dasatinib] (partner 0.075 µM)
Procedure, shortened: as §1

[3] = compound: O=C(/C=C/c1cccnc1)NCCCCC1CCN(C(=O)c2ccccc2)CC1 [Daporinad] + C[C@@H](Oc1cc(-c2cnn(C3CCNCC3)c2)cnc1N)c1c(Cl)ccc(F)c1Cl [Crizotinib] (partner 1 µM)
Procedure, shortened: as §1

[4] = compound: COc1cc(Nc2ncc(F)c(Nc3ccc4c(n3)NC(=O)C(C)(C)O4)n2)cc(OC)c1OC [R406] + CS(=O)(=O)CCNCc1ccc(-c2ccc3ncnc(Nc4ccc(OCc5cccc(F)c5)c(Cl)c4)c3c2)o1 [Lapatinib] (partner 2 µM)
Procedure, shortened: as §1

Cell Line: LU99A
- relative viability ([1]; first compound 0.0005 µM): 0.188
- relative viability ([1]; first compound 0.001581 µM): 0.198
- relative viability ([1]; first compound 0.005 µM): 0.199
- relative viability ([1]; first compound 0.01581 µM): 0.186
- relative viability ([2]; first compound 0.08 µM): 0.553
- relative viability ([2]; first compound 0.253 µM): 0.607
- relative viability ([2]; first compound 0.8 µM): 0.548
- relative viability ([2]; first compound 2.53 µM): 0.377
- relative viability ([2]; first compound 8 µM): 0.271
- relative viability ([3]; first compound 0.0005 µM): 0.527
- relative viability ([3]; first compound 0.001581 µM): 0.596
- relative viability ([3]; first compound 0.005 µM): 0.685
- relative viability ([3]; first compound 0.01581 µM): 0.549
- relative viability ([4]; first compound 0.08 µM): 0.946
- relative viability ([4]; first compound 0.253 µM): 0.849
- relative viability ([4]; first compound 0.8 µM): 1.08
- relative viability ([4]; first compound 8 µM): 0.482

Cell Line: EBC-1
- relative viability ([1]; first compound 0.0005 µM): 0.597
- relative viability ([1]; first compound 0.001581 µM): 0.667
- relative viability ([1]; first compound 0.005 µM): 0.602
- relative viability ([1]; first compound 0.01581 µM): 0.49
- relative viability ([3]; first compound 0.0005 µM): 0.185
- relative viability ([3]; first compound 0.001581 µM): 0.166
- relative viability ([3]; first compound 0.005 µM): 0.162
- relative viability ([3]; first compound 0.01581 µM): 0.181
- relative viability ([4]; first compound 0.08 µM): 0.22
- relative viability ([4]; first compound 0.253 µM): 0.226
- relative viability ([4]; first compound 0.8 µM): 0.216
- relative viability ([4]; first compound 2.53 µM): 0.233
- relative viability ([4]; first compound 8 µM): 0.197

Cell Line: NCI-H2342
- relative viability ([1]; first compound 0.0005 µM): 0.409
- relative viability ([1]; first compound 0.001581 µM): 0.456
- relative viability ([1]; first compound 0.005 µM): 0.427
- relative viability ([1]; first compound 0.01581 µM): 0.367
- relative viability ([2]; first compound 0.08 µM): 0.309
- relative viability ([2]; first compound 0.253 µM): 0.321
- relative viability ([2]; first compound 0.8 µM): 0.341
- relative viability ([2]; first compound 2.53 µM): 0.303
- relative viability ([2]; first compound 8 µM): 0.277

Cell Line: NCI-H1563
- relative viability ([2]; first compound 0.08 µM): 0.438
- relative viability ([2]; first compound 0.253 µM): 0.507
- relative viability ([2]; first compound 0.8 µM): 0.448
- relative viability ([2]; first compound 2.53 µM): 0.473
- relative viability ([2]; first compound 8 µM): 0.376
- relative viability ([3]; first compound 0.0005 µM): 0.85
- relative viability ([3]; first compound 0.001581 µM): 0.857
- relative viability ([3]; first compound 0.005 µM): 0.772
- relative viability ([3]; first compound 0.01581 µM): 0.623
- relative viability ([4]; first compound 0.08 µM): 0.886
- relative viability ([4]; first compound 0.253 µM): 1.06
- relative viability ([4]; first compound 0.8 µM): 1.06
- relative viability ([4]; first compound 2.53 µM): 0.506
- relative viability ([4]; first compound 8 µM): 0.574

Cell Line: NCI-H1623
- relative viability ([2]; first compound 0.08 µM): 0.534
- relative viability ([2]; first compound 0.253 µM): 0.507
- relative viability ([2]; first compound 0.8 µM): 0.587
- relative viability ([2]; first compound 2.53 µM): 0.482
- relative viability ([2]; first compound 8 µM): 0.526

Cell Line: NCI-H1299
- relative viability ([1]; first compound 0.0005 µM): 0.972
- relative viability ([1]; first compound 0.001581 µM): 0.857
- relative viability ([1]; first compound 0.005 µM): 0.904
- relative viability ([1]; first compound 0.01581 µM): 0.855
- relative viability ([3]; first compound 0.0005 µM): 0.969
- relative viability ([3]; first compound 0.001581 µM): 0.963
- relative viability ([3]; first compound 0.005 µM): 0.974
- relative viability ([3]; first compound 0.01581 µM): 1.01
- relative viability ([4]; first compound 0.08 µM): 1.01
- relative viability ([4]; first compound 0.253 µM): 0.982
- relative viability ([4]; first compound 0.8 µM): 0.98
- relative viability ([4]; first compound 2.53 µM): 0.933
- relative viability ([4]; first compound 8 µM): 0.721

Cell Line: NCI-H1395
- relative viability ([1]; first compound 0.0005 µM): 0.436
- relative viability ([1]; first compound 0.001581 µM): 0.471
- relative viability ([1]; first compound 0.005 µM): 0.432
- relative viability ([1]; first compound 0.01581 µM): 0.425
- relative viability ([2]; first compound 0.08 µM): 0.441
- relative viability ([2]; first compound 0.253 µM): 0.444
- relative viability ([2]; first compound 0.8 µM): 0.434
- relative viability ([2]; first compound 2.53 µM): 0.399
- relative viability ([2]; first compound 8 µM): 0.356
- relative viability ([4]; first compound 0.08 µM): 0.821
- relative viability ([4]; first compound 0.253 µM): 1.1
- relative viability ([4]; first compound 0.8 µM): 0.986
- relative viability ([4]; first compound 2.53 µM): 0.851
- relative viability ([4]; first compound 8 µM): 0.491

Cell Line: NCI-H522
- relative viability ([1]; first compound 0.0005 µM): 0.659
- relative viability ([1]; first compound 0.001581 µM): 0.621
- relative viability ([1]; first compound 0.005 µM): 0.573
- relative viability ([1]; first compound 0.01581 µM): 0.49
- relative viability ([2]; first compound 0.08 µM): 0.78
- relative viability ([2]; first compound 0.253 µM): 0.883
- relative viability ([2]; first compound 0.8 µM): 0.869
- relative viability ([2]; first compound 2.53 µM): 0.725
- relative viability ([2]; first compound 8 µM): 0.722

Cell Line: NCI-H441
- relative viability ([1]; first compound 0.0005 µM): 0.488
- relative viability ([1]; first compound 0.001581 µM): 0.554
- relative viability ([1]; first compound 0.005 µM): 0.344
- relative viability ([1]; first compound 0.01581 µM): 0.237
- relative viability ([2]; first compound 0.08 µM): 0.669
- relative viability ([2]; first compound 0.253 µM): 0.659
- relative viability ([2]; first compound 0.8 µM): 0.851
- relative viability ([2]; first compound 2.53 µM): 0.429
- relative viability ([2]; first compound 8 µM): 0.318
- relative viability ([3]; first compound 0.0005 µM): 0.79
- relative viability ([3]; first compound 0.001581 µM): 0.916
- relative viability ([3]; first compound 0.005 µM): 1.1
- relative viability ([3]; first compound 0.01581 µM): 1.15

Cell Line: A549
- relative viability ([1]; first compound 0.0005 µM): 0.324
- relative viability ([1]; first compound 0.001581 µM): 0.184
- relative viability ([1]; first compound 0.005 µM): 0.128
- relative viability ([1]; first compound 0.01581 µM): 0.0773
- relative viability ([3]; first compound 0.0005 µM): 0.903
- relative viability ([3]; first compound 0.001581 µM): 0.777
- relative viability ([3]; first compound 0.005 µM): 0.844
- relative viability ([3]; first compound 0.01581 µM): 0.546
- relative viability ([4]; first compound 0.08 µM): 0.882
- relative viability ([4]; first compound 0.253 µM): 1.04
- relative viability ([4]; first compound 0.8 µM): 1.1
- relative viability ([4]; first compound 2.53 µM): 0.545
- relative viability ([4]; first compound 8 µM): 0.215

Cell Line: NCI-H1648
- relative viability ([1]; first compound 0.0005 µM): 0.641
- relative viability ([1]; first compound 0.001581 µM): 0.667
- relative viability ([1]; first compound 0.01581 µM): 0.523

Cell Line: SW 900
- relative viability ([1]; first compound 0.0005 µM): 0.624
- relative viability ([1]; first compound 0.005 µM): 0.572
- relative viability ([1]; first compound 0.01581 µM): 0.375
- relative viability ([2]; first compound 0.08 µM): 0.592
- relative viability ([2]; first compound 0.253 µM): 0.384
- relative viability ([2]; first compound 0.8 µM): 0.79
- relative viability ([2]; first compound 2.53 µM): 0.23
- relative viability ([2]; first compound 8 µM): 0.0973

Cell Line: IA-LM
- relative viability ([1]; first compound 0.0005 µM): 0.798
- relative viability ([1]; first compound 0.001581 µM): 0.766
- relative viability ([1]; first compound 0.005 µM): 0.707
- relative viability ([1]; first compound 0.01581 µM): 0.475
- relative viability ([3]; first compound 0.0005 µM): 0.734
- relative viability ([3]; first compound 0.001581 µM): 0.917
- relative viability ([3]; first compound 0.005 µM): 1.05
- relative viability ([3]; first compound 0.01581 µM): 0.82
- relative viability ([4]; first compound 0.08 µM): 0.99
- relative viability ([4]; first compound 0.253 µM): 1.26
- relative viability ([4]; first compound 0.8 µM): 0.797
- relative viability ([4]; first compound 2.53 µM): 1.01
- relative viability ([4]; first compound 8 µM): 0.777

Cell Line: ChaGo-K-1
- relative viability ([1]; first compound 0.0005 µM): 0.34
- relative viability ([1]; first compound 0.001581 µM): 0.248
- relative viability ([1]; first compound 0.005 µM): 0.258
- relative viability ([1]; first compound 0.01581 µM): 0.196
- relative viability ([2]; first compound 0.08 µM): 0.568
- relative viability ([2]; first compound 0.253 µM): 0.579
- relative viability ([2]; first compound 0.8 µM): 0.661
- relative viability ([2]; first compound 2.53 µM): 0.498
- relative viability ([2]; first compound 8 µM): 0.442
- relative viability ([3]; first compound 0.0005 µM): 1.15
- relative viability ([3]; first compound 0.001581 µM): 1.18
- relative viability ([3]; first compound 0.005 µM): 0.896
- relative viability ([3]; first compound 0.01581 µM): 0.379

Cell Line: HCC-44
- relative viability ([1]; first compound 0.0005 µM): 0.962
- relative viability ([1]; first compound 0.001581 µM): 1.06
- relative viability ([1]; first compound 0.005 µM): 1.04
- relative viability ([1]; first compound 0.01581 µM): 0.985
- relative viability ([3]; first compound 0.0005 µM): 0.768
- relative viability ([3]; first compound 0.001581 µM): 0.787
- relative viability ([3]; first compound 0.005 µM): 0.899
- relative viability ([3]; first compound 0.01581 µM): 0.747
- relative viability ([4]; first compound 0.08 µM): 0.899
- relative viability ([4]; first compound 0.253 µM): 1.08
- relative viability ([4]; first compound 0.8 µM): 1.12
- relative viability ([4]; first compound 2.53 µM): 0.624
- relative viability ([4]; first compound 8 µM): 0.619
